In brackets after ≈: the same amount, converted by molar mass. Numbered stars: 1 amine (or outer) side, 2 acyl side, 3 side chain; on linkers, the order of the positions; unused ones are H or OH. Bridge positions count the residues as written; N and C are the ends. Square brackets hold non-standard residues; d marks the D form. Peptide text beside a SMILES is read from it. * marks the point of attachment. Phe(3-F) = N[C@@H](Cc1cccc(F)c1)C(=O)O; X2 = CC1CCN([*:1])[C@@H](C(=O)[*:2])C1; X1 = CC1CCN([*:1])[C@H](C(=O)[*:2])C1; X3 = CCC(CC)(C(=O)[*:2])N(C)[*:1]; Heptenoyl(2E) = CCCC/C=C/C(=O)*; NMeAc6c = CNC1(C(=O)O)CCCCC1; NMeAc5c = CNC1(C(=O)O)CCCC1; NMeAc4c = CNC1(C(=O)O)CCC1

Test [1] concerns Methicillin-resistant S. aureus (clinical isolate from blood). As to the kind of experiment: Broth dilution MIC/MBC vs methicillin-resistant S. aureus. In kind it is cell-based. The following applies: Staphylococcus aureus, MRSA (clinical isolate from blood); for MBC: 99.9% kill after 24 h. From the text: (§1) The naturally occurring enopeptins and the synthetic derivative ADEP 4 are reported to have strong antibacterial activity (see, e.g., Hinzen et al., Chem Med Chem 2006, 1, 689). Broth dilution assays were used to determine the MICs of the acyldepsipeptide derivatives 10a-h against both ATCC strains and clinical isolates of S. epidermis, S. aureus, and Enterococci obtained from patients of the Veterans Affairs Medical Center in Providence, R.I. Clinical isolates were included to gain a better indication of the potential of these new antibacterial agents (see, e.g., Clinical and Laboratory Standard Institute (CLSI) Methods for dilution antimicrobial susceptibility tests for bacteria that grow aerobically M07-A8; CLSI 8th ed., Wayne, Pa., 2009; Clinical Laboratory Standards Institute (CLSI) Performance standards for antimicrobial susceptibility testing M100-S19. CLSI 19th informational suppl., Wayne, Pa. 2009). In the interest of assessing the cell-killing ability of these compounds, the minimal bactericidal concentrations (MBC) of the compounds was also determined against the aformentioned strains. The MIC was defined as the lowest concentration of an antimicrobial agent visually inhibiting more than 99% of the colonies.
(§2) Minimum inhibitory concentrations (MIC) were determined in duplicate using methods outlined by The Clinical and Laboratory Standards Institute. Compounds were dissolved in DMSO and fresh cation-adjusted Mueller-Hinton broth (SMHB; Difco Laboratories, Sparks, Md., USA; 25 μg/mL calcium and 12.5 μg/mL magnesium) was used to dilute antimicrobial agents in a serial 2-fold schedule. Colony counts for the inoculum verification was determined using Tryptic Soy Agar plates (TSA, Difco, Becton Dickinson Co., Sparks, Md., USA). Following incubation, 100 μL of broth was subcultured onto TSA for MBC determination. MIC and MBC determination can be found in Table 2 and 3. Control isolates were obtained from the American Type Culture Collection (ATCC) and were as follows: Methicillin-resistant S. epidermidis (MRSE ATCC 35984); MSSA (ATCC 35556) and, VRE (ATCC 2030).
(In general: Broth dilution looks for growth in wells or tubes with falling amounts of substance.)

Test [2] relates to Methicillin-susceptible S. aureus (ATCC 35556). Kind of test: Broth dilution MIC/MBC vs methicillin-susceptible S. aureus. In kind it is cell-based, Staphylococcus aureus. Conditions: for MIC / MBC: Staphylococcus aureus, ATCC 35556 / MSSA, MSSA (ATCC 35556); for MBC: 99.9% kill after 24 h.
From the text: as §1, §2

Test [3] concerns Vancomycin-resistant Enterococcus faecium (clinical isolate obtained from tissue). Kind of test: Broth dilution MIC/MBC vs vancomycin-resistant E. faecium. The format is cell-based. The following applies: VRE.
From the text: as §1, §2

For test [4], the system named is Vancomycin-resistant Enterococcus faecalis (clinical isolate from rectal swab). As to the kind of experiment: Broth dilution MIC/MBC vs vancomycin-resistant E. faecalis. In kind it is cell-based. The following applies: VRE.
From the text: as §1, §2

The test system of test [5] is S. aureus strains. Kind of test: Antibacterial activity vs S. aureus strains, stated in words. In kind it is cell-based, Staphylococcus aureus.
From the text: as §1, with “The MIC was defined as the lowest concentration of an antimicrobial agent visually inhibiting more than 99% of the colonies.” left out
(§3) Minimum inhibitory concentrations (MIC) were determined in duplicate using methods outlined by The Clinical and Laboratory Standards Institute. […] Colony counts for the inoculum verification was determined using Tryptic Soy Agar plates (TSA, Difco, Becton Dickinson Co., Sparks, Md., USA). […]

In test [6] the test system is Enterococcus faecalis (ATCC 29212). As to the kind of experiment: Broth dilution MIC/MBC vs E. faecalis ATCC strain. Conditions: ATCC29212, EF^1: E. faecalis (ATCC 29212). The format is cell-based.
From the text: as §1, §2

Test [7] relates to Staphylococcus epidermis (ATCC 25984). As to the kind of experiment: Broth dilution MIC/MBC vs Staphylococcus epidermis. The format is cell-based. The following applies: ATCC25984.
From the text: as §1, with “The MIC was defined as the lowest concentration of an antimicrobial agent visually inhibiting more than 99% of the colonies.” left out
as §3

Test [8] relates to Enterococcus faecalis (clinical isolate from rectal swab). As to the kind of experiment: Broth dilution MIC/MBC vs E. faecalis clinical isolate. The format is cell-based. Conditions: EF^2: E. faecalis (clinical isolate from rectal swab).
From the text: as §1, §2

For test [9], the system named is E. faecalis and vancomycin-resistant E. faecium. As to the kind of experiment: Antibacterial activity vs panel of pathogenic Enterococci, stated in words. In kind it is cell-based. Conditions: against E. faecalis and vancomycin-resistant E. faecium.
From the text: as §1, with “The MIC was defined as the lowest concentration of an antimicrobial agent visually inhibiting more than 99% of the colonies.” left out
as §3

`CCCC/C=C/C(=O)N[C@@H](Cc1cccc(F)c1)C(=O)N[C@H]1COC(=O)[C@@H]2CCCN2C(=O)[C@H](C)NC(=O)C2(CCC2)N(C)C(=O)[C@@H]2CCCN2C1=O` [Compound 10f] ({Heptenoyl(2E)}-[Phe(3-F)]SP[NMeAc4c]AP; ester 2-C): in test [1], the MIC is > 312 µg/mL and the MBC was > 312 µg/mL. Further, in test [2], 312 µg/mL (≈ 422 µM) was the least that counted as inhibitory (MIC) and the MBC was > 312 µg/mL.
In the case of `CCCC/C=C/C(=O)N[C@@H](Cc1cccc(F)c1)C(=O)N[C@H]1COC(=O)[C@@H]2CCCN2C(=O)[C@H](C)NC(=O)[C@H]2CCCCN2C(=O)[C@@H]2CCCN2C1=O` [Compound 10b], the MIC in test [1] and in test [2] was > 312 µg/mL each time. The MBC in test [1] and in test [2] was > 312 µg/mL throughout.
Take `CCCC/C=C/C(=O)N[C@@H](Cc1cccc(F)c1)C(=O)N[C@H]1COC(=O)[C@@H]2CCCN2C(=O)[C@H](C)NC(=O)C2(CCCCC2)N(C)C(=O)[C@@H]2CCCN2C1=O` [Compound 10h] ({Heptenoyl(2E)}-[Phe(3-F)]SP[NMeAc6c]AP; ester 2-C): in [1], the MIC was > 312 µg/mL and the MBC is > 312 µg/mL. Besides, in test [2], 39.1 µg/mL (≈ 51 µM) was the least that counted as inhibitory (MIC) and the MBC is > 312 µg/mL.
On to `CCCC/C=C/C(=O)N[C@@H](Cc1cccc(F)c1)C(=O)N[C@H]1COC(=O)[C@@H]2CCCN2C(=O)[C@H](C)NC(=O)[C@H]2CC(C)CCN2C(=O)[C@@H]2CCCN2C1=O` (some centres unmarked) [Compound 10d] ({Heptenoyl(2E)}-[Phe(3-F)]SP[X2]AP; ester 2-C), for which the MIC in test [1] and in [2] was > 156 µg/mL each time. Besides, the MBC is 0.156 µg/mL (≈ 0.207 µM) in test [1] and > 156 µg/mL in [2].
With `CCCC/C=C/C(=O)N[C@@H](Cc1cccc(F)c1)C(=O)N[C@H]1COC(=O)[C@@H]2CCCN2C(=O)[C@H](C)NC(=O)C2(CCCC2)N(C)C(=O)[C@@H]2CCCN2C1=O` [Compound 10g] ({Heptenoyl(2E)}-[Phe(3-F)]SP[NMeAc5c]AP; ester 2-C), in test [1], the MIC is > 312 µg/mL and the minimum bactericidal concentration (MBC) was > 312 µg/mL. Further, in [2], the MIC was found to be 39.1 µg/mL (≈ 51.9 µM) and the MBC is > 312 µg/mL.
With `CCCC/C=C/C(=O)N[C@@H](Cc1cccc(F)c1)C(=O)N[C@H]1COC(=O)[C@@H]2CCCN2C(=O)[C@H](C)NC(=O)[C@@H]2CCCCN2C(=O)[C@@H]2CCCN2C1=O` [Compound 10a], the MBC in test [3] was found to be 0.08 µg/mL (≈ 0.108 µM); in test [1], 1.25 µg/mL (≈ 1.69 µM); in [2] it was 1.25 µg/mL (≈ 1.69 µM); in test [4], 0.04 µg/mL (≈ 0.0541 µM); in [6] it was 1.25 µg/mL (≈ 1.69 µM); in test [7], 1.25 µg/mL (≈ 1.69 µM). Also, in test [8], the MBC was 0.04 µg/mL (≈ 0.0541 µM). The MIC in test [3] came out at 0.08 µg/mL (≈ 0.108 µM); in test [1], 1.25 µg/mL (≈ 1.69 µM); in test [2], 1.25 µg/mL (≈ 1.69 µM); in test [4] it was 0.04 µg/mL (≈ 0.0541 µM); in test [6] it was 0.16 µg/mL (≈ 0.217 µM); in [7], 1.25 µg/mL (≈ 1.69 µM). Besides, inhibition of growth in test [8] (MIC) required 0.04 µg/mL (≈ 0.0541 µM). Further, the antibacterial activity result in test [5] was “exhibited the expected antibacterial activity”.
With `CCCC/C=C/C(=O)N[C@@H](Cc1cccc(F)c1)C(=O)N[C@H]1COC(=O)[C@@H]2CCCN2C(=O)[C@H](C)NC(=O)[C@@H]2CC(C)CCN2C(=O)[C@@H]2CCCN2C1=O` (some centres unmarked) [Compound 10c] ({Heptenoyl(2E)}-[Phe(3-F)]SP[X1]AP; ester 2-C), the MBC was found to be 0.08 µg/mL (≈ 0.106 µM) in test [3]; 2.4 µg/mL (≈ 3.19 µM) in test [1]; 0.6 µg/mL (≈ 0.797 µM) in [2]; 0.04 µg/mL (≈ 0.0531 µM) in [4]; 0.08 µg/mL (≈ 0.106 µM) in [6]; 0.04 µg/mL (≈ 0.0531 µM) in test [8]. Also, the MIC is 0.04 µg/mL (≈ 0.0531 µM) in test [3]; 0.6 µg/mL (≈ 0.797 µM) in test [1]; 0.6 µg/mL (≈ 0.797 µM) in test [2]; 0.04 µg/mL (≈ 0.0531 µM) in [4]; 0.04 µg/mL (≈ 0.0531 µM) in [6]; 0.02 µg/mL (≈ 0.0266 µM) in test [8]. Moreover, the “antibacterial activity compared with compound 10a” value in test [2] (against MSSA, in words) is “better activity than compound 10a”; in test [9] it was “more potent activity”.
For the compound `CCCC/C=C/C(=O)N[C@@H](Cc1cccc(F)c1)C(=O)N[C@H]1COC(=O)[C@@H]2CCCN2C(=O)[C@H](C)NC(=O)C(CC)(CC)N(C)C(=O)[C@@H]2CCCN2C1=O` [Compound 10e] ({Heptenoyl(2E)}-[Phe(3-F)]SP[X3]AP; ester 2-C), in test [1], the MIC is > 312 µg/mL and the MBC is > 312 µg/mL. For the same compound, in test [2], the minimal inhibitory concentration (MIC) came out at 78.1 µg/mL (≈ 103 µM) and the minimum bactericidal concentration (MBC) is > 312 µg/mL.

As usually defined, the MIC is the lowest concentration that inhibits growth of the organism. Read a high MIC as weaker potency. The MBC is the smallest concentration meeting the test's criterion for killing. A lower MBC goes with more potent killing.

The values are drawn from patent publication US10106580B2, “Enopeptins, uses thereof, and methods of synthesis thereto” (Brown University, priority 2011, dated 2018).
